Measurements reported in patent publication US9242958B2, “Substituted pyridazine carboxamide compounds as kinase inhibitor compounds” (Xcovery Holding Company LLC, priority 2010, dated 2016).
Marks after values point to notes of the source that are not given here. Values belong to the molecule of their own block, whether it stands above or below them.

How the values were obtained:
[1] = biological target: T1, ALK (Homo sapiens, UniProt Q9UM73); experiment: Kinase binding assay (ALK biochemical assay, affinity beads/qPCR)
T1 construct: T7 phage fusion (kinase-tagged T7 phage), or alternatively a DNA tag for qPCR; made in house; host or cells: E. coli BL21-derived host (T7 phage display) or HEK-293 cells
T1 sequence (Q9UM73 19-1620): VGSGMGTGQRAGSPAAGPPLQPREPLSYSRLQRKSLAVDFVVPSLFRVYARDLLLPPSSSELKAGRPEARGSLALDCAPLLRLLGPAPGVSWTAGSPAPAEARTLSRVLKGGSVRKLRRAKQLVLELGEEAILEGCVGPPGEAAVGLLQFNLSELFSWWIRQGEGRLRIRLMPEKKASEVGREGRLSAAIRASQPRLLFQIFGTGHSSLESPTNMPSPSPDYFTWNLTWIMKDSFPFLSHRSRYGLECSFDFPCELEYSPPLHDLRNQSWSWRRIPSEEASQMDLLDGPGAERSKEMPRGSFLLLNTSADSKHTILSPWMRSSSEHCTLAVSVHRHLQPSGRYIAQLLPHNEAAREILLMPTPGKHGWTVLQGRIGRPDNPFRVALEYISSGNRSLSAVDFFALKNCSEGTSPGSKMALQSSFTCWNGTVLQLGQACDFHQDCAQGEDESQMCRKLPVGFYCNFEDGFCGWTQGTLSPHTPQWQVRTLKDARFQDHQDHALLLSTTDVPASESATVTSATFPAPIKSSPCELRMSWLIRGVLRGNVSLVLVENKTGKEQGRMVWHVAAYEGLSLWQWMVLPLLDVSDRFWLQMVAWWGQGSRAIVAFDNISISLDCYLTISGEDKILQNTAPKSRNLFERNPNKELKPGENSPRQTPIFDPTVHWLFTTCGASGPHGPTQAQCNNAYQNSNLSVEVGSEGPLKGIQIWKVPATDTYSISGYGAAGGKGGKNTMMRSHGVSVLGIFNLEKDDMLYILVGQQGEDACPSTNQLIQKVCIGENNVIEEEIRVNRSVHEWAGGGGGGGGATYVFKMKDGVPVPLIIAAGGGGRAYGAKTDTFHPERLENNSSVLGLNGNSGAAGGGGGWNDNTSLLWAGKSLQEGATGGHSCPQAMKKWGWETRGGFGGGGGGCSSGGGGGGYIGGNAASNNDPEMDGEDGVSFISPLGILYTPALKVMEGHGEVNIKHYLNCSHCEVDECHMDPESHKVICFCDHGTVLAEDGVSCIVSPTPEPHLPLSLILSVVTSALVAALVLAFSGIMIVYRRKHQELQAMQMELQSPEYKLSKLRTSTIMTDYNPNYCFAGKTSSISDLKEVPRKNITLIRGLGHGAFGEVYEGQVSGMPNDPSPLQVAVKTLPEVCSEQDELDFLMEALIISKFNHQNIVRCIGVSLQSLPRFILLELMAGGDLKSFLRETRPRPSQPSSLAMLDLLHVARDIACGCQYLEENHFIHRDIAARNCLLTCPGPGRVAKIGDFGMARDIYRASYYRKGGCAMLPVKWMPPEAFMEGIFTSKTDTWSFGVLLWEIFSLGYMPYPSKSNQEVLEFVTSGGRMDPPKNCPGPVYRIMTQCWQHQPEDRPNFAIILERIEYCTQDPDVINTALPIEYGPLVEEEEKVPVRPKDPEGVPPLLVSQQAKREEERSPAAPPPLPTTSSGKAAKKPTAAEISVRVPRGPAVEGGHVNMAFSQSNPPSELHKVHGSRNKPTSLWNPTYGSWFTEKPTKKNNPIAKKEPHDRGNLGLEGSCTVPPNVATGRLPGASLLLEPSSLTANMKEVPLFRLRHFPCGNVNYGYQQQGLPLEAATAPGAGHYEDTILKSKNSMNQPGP
Method: (§1) Met, ALK Biochemical Assays
(§2) Kinase Assays. […] 23, p. […] 26, p.
(§3) For most assays, kinase-tagged T7 phage strains were grown in parallel in 24-well blocks in an E. coli host derived from the BL21 strain. E. coli were grown to log-phase and infected with T7 phage from a frozen stock (multiplicity of infection ˜0.1) and incubated with shaking at 32° C. until lysis (˜90 minutes). The lysates were centrifuged (6,000×g) and filtered ([…]) to remove cell debris. The remaining kinases were produced in HEK-293 cells and subsequently tagged with DNA for qPCR detection. […] The liganded beads were blocked with excess biotin and washed with blocking buffer (SeaBlock (Pierce), 1% BSA, 0.05% Tween 20, 1 mM DTT) to remove unbound ligand and to reduce non-specific phage binding. […] Test compounds were prepared as 40× stocks in 100% DMSO and directly diluted into the assay. All reactions were performed in polypropylene 384-well plates in a final volume of 0.04 ml. […] The kinase concentration in the eluates was measured by qPCR.

[2] = biological target: T2, c-Met (Homo sapiens, UniProt P08581); experiment: Kinase binding assay (Met biochemical assay, affinity beads/qPCR)
T2 construct: T7 phage fusion (kinase-tagged T7 phage), or alternatively a DNA tag for qPCR; made in house; host or cells: E. coli BL21-derived host (T7 phage display) or HEK-293 cells
T2 sequence (P08581 25-1390): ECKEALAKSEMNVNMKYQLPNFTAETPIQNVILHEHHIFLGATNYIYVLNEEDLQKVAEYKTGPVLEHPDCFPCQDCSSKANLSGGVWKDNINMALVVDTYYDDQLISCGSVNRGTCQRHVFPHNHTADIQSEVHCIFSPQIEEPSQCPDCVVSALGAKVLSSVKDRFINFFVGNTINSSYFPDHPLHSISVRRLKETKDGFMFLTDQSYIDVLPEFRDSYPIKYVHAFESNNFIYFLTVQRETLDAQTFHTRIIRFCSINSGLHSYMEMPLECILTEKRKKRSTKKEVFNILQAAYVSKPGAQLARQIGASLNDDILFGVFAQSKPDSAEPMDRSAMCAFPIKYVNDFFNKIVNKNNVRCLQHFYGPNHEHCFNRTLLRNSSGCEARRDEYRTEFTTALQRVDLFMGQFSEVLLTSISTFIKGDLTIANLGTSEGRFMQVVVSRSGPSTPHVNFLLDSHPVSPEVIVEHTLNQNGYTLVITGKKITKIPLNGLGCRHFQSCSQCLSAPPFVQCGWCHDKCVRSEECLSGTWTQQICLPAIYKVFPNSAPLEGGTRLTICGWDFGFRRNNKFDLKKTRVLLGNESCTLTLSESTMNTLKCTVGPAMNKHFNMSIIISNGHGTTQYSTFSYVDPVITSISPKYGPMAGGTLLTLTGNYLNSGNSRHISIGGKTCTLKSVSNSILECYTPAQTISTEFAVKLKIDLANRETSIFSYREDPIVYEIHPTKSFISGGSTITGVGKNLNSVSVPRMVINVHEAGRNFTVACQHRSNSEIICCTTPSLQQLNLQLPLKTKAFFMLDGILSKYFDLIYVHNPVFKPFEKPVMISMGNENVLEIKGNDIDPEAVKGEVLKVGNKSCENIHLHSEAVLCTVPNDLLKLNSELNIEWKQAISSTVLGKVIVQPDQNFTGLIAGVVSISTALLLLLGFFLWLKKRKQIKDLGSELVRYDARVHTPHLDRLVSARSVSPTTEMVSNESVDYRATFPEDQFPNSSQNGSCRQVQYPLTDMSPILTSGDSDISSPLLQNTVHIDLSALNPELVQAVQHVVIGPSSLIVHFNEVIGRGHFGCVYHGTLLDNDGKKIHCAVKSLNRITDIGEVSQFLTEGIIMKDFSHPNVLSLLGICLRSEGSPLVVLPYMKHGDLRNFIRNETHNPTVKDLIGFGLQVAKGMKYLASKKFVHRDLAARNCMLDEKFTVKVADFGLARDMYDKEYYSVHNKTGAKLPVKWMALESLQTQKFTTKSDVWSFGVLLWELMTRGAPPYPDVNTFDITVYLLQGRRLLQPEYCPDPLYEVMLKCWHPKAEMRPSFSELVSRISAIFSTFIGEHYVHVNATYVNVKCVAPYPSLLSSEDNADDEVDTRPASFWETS
Method: as §1, §2, §3

[3] = system: U-87 MG xenograft tumor; experiment: In vivo anti-tumor efficacy against U-87MG tumor xenograft model; design: species or system Balb/c nude mice
Method: In Vivo Anti-Tumor Efficacy of Compound 1 of EXAMPLE 1 Against U-87MG Tumor Xenograft Model
Balb/c nude mice (6 weeks old, male) were purchased from Shanghai Slac Laboratory Animal Co. Ltd (Shanghai, China). All mice were maintained in a pathogen-free facility for ˜2 weeks before implantation. They were housed in plastic cages (4˜6 mice/cage) containing corn cob and maintained in a pathogen-free facility (20˜25° C., 30˜70% humidity) with a 12-h light:dark cycle.
U-87 MG xenograft model was established by implanting athymic Balb/c nude mice s.c in the right flank with U-87 MG cells, 3.6×10^6/mouse (120 ul). Tumors were allowed to reach 120˜380 mm^3 in size.
Tumor volumes were measured twice a week with caliper. Tumor volumes were calculated by the formula <Tumor volume=length×width^2/2>.
Percentage of tumor growth inhibition (GI) after initiation of treatment was calculated by the formula: GI=100×{1−[(tumor volumefinal−tumor volumeinitial for the compound-treated group)/(tumor volumefinal−tumor volumeinitial for the vehicle-treated group)]} Relative tumor volume is defined as the ratio of the volume at a given time and the volume at the start of treatment. The relative tumor volume (RTV) was calculated by the formula: RTV=100×TVT/TV0

[4] = 25 mg/kg ig BID, d28 post implantation
[5] = 25 mg/kg ig BID, d31 post implantation
[6] = 50 mg/kg ig BID, d28 post implantation
[7] = 50 mg/kg ig BID, d31 post implantation

SMILES: C[C@@H](Oc1cc(C(=O)Nc2ccc(=O)n(C)c2)nnc1N)c1c(Cl)ccc(F)c1Cl [Example 1, {5-[(1R)-1-(2,6-dichloro-3-fluorophenyl)ethoxy]-6-aminopyridazin-3-yl}-N-(1-methyl-6-oxo-1,6-dihydro-pyridin-3-yl)carboxamide]
tumor volume (mean ± S.E) ([3]; 25 mg/kg ig BID, d24 post implantation (start of treatment)): 230.4 ± 23.0 mm^3
tumor growth inhibition GI [3, 4]: 62.14%
tumor volume (mean ± S.E) [3, 4]: 365.7 ± 29.3** mm^3
tumor growth inhibition GI [3, 5]: 77.04%
tumor volume (mean ± S.E) [3, 5]: 453.7 ± 19.7** mm^3
tumor volume (mean ± S.E) ([3]; 25 mg/kg ig BID, d35 post implantation): 627.7 ± 33.9** mm^3
tumor growth inhibition GI ([3]; 25 mg/kg ig BID, d35 post implantation (after 11 days of treatment)): 65.95%
tumor volume (mean ± S.E) ([3]; 50 mg/kg ig BID, d24 post implantation (start of treatment)): 230.2 ± 24.5 mm^3
tumor growth inhibition GI [3, 6]: 78.82%
tumor volume (mean ± S.E) [3, 6]: 305.9 ± 22.0** mm^3
tumor growth inhibition GI [3, 7]: 85.52%
tumor volume (mean ± S.E) [3, 7]: 337.4 ± 27.8** mm^3
tumor volume (mean ± S.E) ([3]; 50 mg/kg ig BID, d35 post implantation): 371.5 ± 34.4** mm^3
tumor growth inhibition GI ([3]; 50 mg/kg ig BID, d35 post implantation (after 11 days of treatment)): 88.71%
IC50 [1]: > 10 nM
IC50 [2]: < 5 nM

SMILES: CC(Oc1cc(C(=O)NC2CCC(=O)N(C)C2)nnc1N)c1c(Cl)ccc(F)c1Cl (centres unmarked) [Example 4]
IC50 [1]: > 100 nM
IC50 [2]: > 100 nM

SMILES: C[C@@H](Oc1cc(C(=O)Nc2ccc(C(=O)N3CCN(C)CC3)cc2)nnc1N)c1c(Cl)ccc(F)c1Cl [reference compound]
IC50 [1]: < 5 nM
IC50 [2]: < 5 nM

More lines, now with the values ahead:

IC50 [1]: > 10 nM
IC50 [2]: < 5 nM
SMILES: CC(Oc1cc(C(=O)Nc2ccc(=O)[nH]c2)nnc1N)c1c(Cl)ccc(F)c1Cl (racemic) [Example 5, {6-amino-5-[(2,6-dichloro-3-fluorophenyl)ethoxy]pyridazin-3-yl}-N-(6-oxo-1,6-dihydro-pyridin-3-yl)carboxamide]

IC50 [1]: > 10 nM
IC50 [2]: < 5 nM
SMILES: COCCn1cc(NC(=O)c2cc(OC(C)c3c(Cl)ccc(F)c3Cl)c(N)nn2)ccc1=O (racemic) [Example 6, {6-amino-5-[(2,6-dichloro-3-fluorophenyl)ethoxy]pyridazin-3-yl}-N-[1-(2-methoxyethyl)-6-oxo-1,6-dihydro-pyridin-3-yl]carboxamide]

IC50 [1]: > 10 nM
IC50 [2]: < 5 nM
SMILES: CCn1cc(NC(=O)c2cc(OC(C)c3c(Cl)ccc(F)c3Cl)c(N)nn2)ccc1=O (racemic) [Example 7, {6-amino-5-[(2,6-dichloro-3-fluorophenyl)ethoxy]pyridazin-3-yl}-N-(1-ethyl-6-oxo-1,6-dihydro-pyridin-3-yl)carboxamide]
